This note sets out measurements from ChEMBL document CHEMBL1138844, “Synthesis and biological evaluation of 1-aryl-4,5-dihydro-1H-pyrazolo[3,4-d]pyrimidin-4-one inhibitors of cyclin-dependent kinases” (J Med Chem, 2004).

The target of data set [1] is Cyclin-dependent kinase 1/cyclin B (Homo sapiens, UniProt P06493). The experiment in a line: Inhibition of Cyclin-dependent kinase 1-cyclin B. Type of data set: protein-complex assay.
In data set [2] the target is Cyclin-dependent kinase 2/cyclin E (Homo sapiens, UniProt P24941).
Description: Inhibition of Cyclin-dependent kinase 2-cyclin E
The nature of data set [3]: Partition coefficient (logP). The following applies: octanol/water. Type of data set: physicochemical.
The subject of data set [4] is HCT-116. As to the kind of experiment: Inhibition of human colon carcinoma cell (HCT116) proliferation. The data set is classed as functional, cell-based.
Data set [5] has as its target T1, Cyclin-dependent kinase 4/cyclin D1 (Homo sapiens, UniProt P11802). The experiment in a line: Inhibition of Cyclin-dependent kinase 4-cyclin D1. Type of data set: protein-complex assay.
Data set [6] has as its system HCT-116. The experiment in a line: Concentration required for growth inhibition of human colon carcinoma cell line HCT116. The data set is classed as functional, cell-based.
The target of data set [7] is T1, Cyclin-dependent kinase 4/cyclin D1. As to the kind of experiment: Inhibition of Cyclin-dependent kinase 4/cyclin D1. The data set is classed as protein-complex assay.
In data set [8] the target is Tyrosine-protein kinase ABL1 (Homo sapiens, UniProt P00519).
Description: Inhibition of c-Abl tyrosine kinase activity
The nature of data set [9]: Inhibition of Protein Kinase A activity.
For data set [10], the system named is AG1523. The experiment in a line: Concentration required for growth inhibition of human fibroblast cell line Ag 1523. The data set is classed as functional, cell-based.
For data set [11], the system named is A498. The experiment in a line: Inhibitory concentration against human kidney cell line A498 was determined. The data set is classed as functional, cell-based.
Data set [12] can be described thus: Inhibitory concentration against NCI H460 cell line was determined. The data set is classed as functional, cell-based, Homo sapiens.
Data set [13] relates to COLO 205. As to the kind of experiment: Inhibitory concentration against human colon cell line COLO 205 was determined. Type of data set: functional, cell-based.
Data set [14] relates to DU-145. The experiment in a line: Inhibitory concentration against human prostate cell line DU145 was determined. Type of data set: functional, cell-based.
In data set [15] the test system is HCT-116. As to the kind of experiment: Inhibitory concentration against human colon cell line HCT116 was determined. The data set is classed as functional, cell-based.
Data set [16] deals with MCF7. As to the kind of experiment: Inhibitory concentration against human breast cell line MCF-7 was determined. Type of data set: functional, cell-based.
Data set [17] relates to T47D. As to the kind of experiment: Inhibitory concentration against human breast cell line T47D was determined. Type of data set: functional, cell-based.
A short description of data set [18]: Inhibitory concentration against human breast cell line MDA MB468 was determined. Type of data set: functional, cell-based. The following applies: mda-mb-468.

Some results are limits rather than exact numbers.

T1 sequence (P11802 whole entry): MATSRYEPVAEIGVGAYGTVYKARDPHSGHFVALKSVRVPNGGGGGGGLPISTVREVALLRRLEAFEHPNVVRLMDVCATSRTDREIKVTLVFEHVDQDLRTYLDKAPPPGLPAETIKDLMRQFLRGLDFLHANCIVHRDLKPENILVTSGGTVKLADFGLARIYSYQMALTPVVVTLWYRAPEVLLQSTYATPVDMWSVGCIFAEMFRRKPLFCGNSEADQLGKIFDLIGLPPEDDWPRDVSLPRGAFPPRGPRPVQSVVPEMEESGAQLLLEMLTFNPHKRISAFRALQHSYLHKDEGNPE
T1 sequence (P24385 whole entry, further chain): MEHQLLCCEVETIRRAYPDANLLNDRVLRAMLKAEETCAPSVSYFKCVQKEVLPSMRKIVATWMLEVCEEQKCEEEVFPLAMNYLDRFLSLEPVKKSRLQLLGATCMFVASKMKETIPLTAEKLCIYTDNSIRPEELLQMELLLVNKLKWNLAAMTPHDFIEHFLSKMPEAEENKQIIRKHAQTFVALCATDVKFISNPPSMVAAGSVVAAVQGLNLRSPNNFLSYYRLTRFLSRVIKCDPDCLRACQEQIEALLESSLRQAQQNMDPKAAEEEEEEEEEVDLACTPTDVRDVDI
Chain of Tyrosine-protein kinase ABL1 (P00519 whole entry): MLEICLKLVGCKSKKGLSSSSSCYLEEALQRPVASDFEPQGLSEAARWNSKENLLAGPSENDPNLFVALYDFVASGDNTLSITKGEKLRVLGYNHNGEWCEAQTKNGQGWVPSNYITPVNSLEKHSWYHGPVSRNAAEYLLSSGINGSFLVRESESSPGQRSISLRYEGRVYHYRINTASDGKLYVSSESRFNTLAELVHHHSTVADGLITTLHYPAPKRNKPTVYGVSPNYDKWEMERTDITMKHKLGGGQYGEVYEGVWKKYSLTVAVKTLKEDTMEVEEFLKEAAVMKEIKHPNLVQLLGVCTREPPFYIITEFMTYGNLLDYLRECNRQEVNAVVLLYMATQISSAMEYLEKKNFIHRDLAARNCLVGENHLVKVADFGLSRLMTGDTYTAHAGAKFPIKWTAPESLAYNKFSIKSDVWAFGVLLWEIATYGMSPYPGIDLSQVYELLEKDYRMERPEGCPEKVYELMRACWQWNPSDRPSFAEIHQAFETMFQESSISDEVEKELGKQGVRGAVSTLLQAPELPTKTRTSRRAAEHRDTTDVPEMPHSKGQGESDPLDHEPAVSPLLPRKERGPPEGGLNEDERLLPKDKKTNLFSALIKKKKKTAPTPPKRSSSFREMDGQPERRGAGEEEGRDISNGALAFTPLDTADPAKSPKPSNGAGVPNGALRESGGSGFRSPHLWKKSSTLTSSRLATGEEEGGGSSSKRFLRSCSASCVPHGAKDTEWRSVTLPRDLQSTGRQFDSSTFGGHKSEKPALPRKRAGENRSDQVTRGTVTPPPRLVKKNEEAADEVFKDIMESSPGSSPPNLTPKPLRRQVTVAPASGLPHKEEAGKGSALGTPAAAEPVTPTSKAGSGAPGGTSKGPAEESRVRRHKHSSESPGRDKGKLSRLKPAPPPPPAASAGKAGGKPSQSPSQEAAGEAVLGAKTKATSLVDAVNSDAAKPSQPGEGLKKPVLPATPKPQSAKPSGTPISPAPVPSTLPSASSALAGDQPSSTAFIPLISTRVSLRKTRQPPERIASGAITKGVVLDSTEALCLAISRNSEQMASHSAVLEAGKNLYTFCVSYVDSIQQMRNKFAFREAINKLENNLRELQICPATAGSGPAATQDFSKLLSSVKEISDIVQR

As for `CCc1nn(-c2c(Cl)cc(Cl)cc2Cl)c2nc(Cc3ccc(NC(=O)CNC(=O)OC(C)(C)C)cc3)[nH]c(=O)c12`, the IC50 in data set [1] is 180 nM; in [2], 10 nM; in data set [4] it was 160 nM; in [5], 1700 nM. Further, in data set [3], the logP was found to be 4.9.
Consider `CSc1nn(-c2c(Cl)cc(Cl)cc2Cl)c2nc(C)[nH]c(=O)c12`, for which the IC50 in data set [1] was found to be 6200 nM; in [6], 2500 nM; in data set [2], 360 nM; in data set [7], 2100 nM; in data set [5] it was 2100 nM; in data set [8] it was 420000 nM. The results for the 50% inhibitory concentration (IC50) in data set [9] and in data set [10] were above 500000 nM and 9200 nM, respectively.
On to `CCc1nn(-c2c(Cl)cc(Cl)cc2Cl)c2nc(Cc3ccc(N)cc3)[nH]c(=O)c12`, for which the IC50 in [1] stood at 150 nM; in [2] it was 10 nM; in [4] it was 420 nM; in [5], 2700 nM. The compound also yielded a logP in data set [3] of 3.8.
With `CCc1nn(-c2c(Cl)cc(Cl)cc2Cl)c2nc(Cc3ccc(OC)c(O)c3)[nH]c(=O)c12`, the IC50 in data set [1] came out at 200 nM; in data set [2], 10 nM; in data set [4], 130 nM; in [5], 20 nM.
`CCc1nn(-c2c(Cl)cc(Cl)cc2Cl)c2nc(Cc3ccc(NC(=O)CN)cc3)nc(O)c12`: the IC50 is 70 nM in data set [1], 10 nM in data set [2], 120 nM in data set [4] and 460 nM in data set [5]. Besides, the log partition coefficient (logP) in [3] stood at 3.3.
For `CCc1nn(-c2c(Cl)cc(Cl)cc2Cl)c2nc(Cc3cccc(N)c3)[nH]c(=O)c12`, the IC50 in [1] turned out to be 270 nM; in data set [2] it was 40 nM; in data set [4], 470 nM; in [5], 2900 nM.
In [6], `CN[C@@H]1C[C@H]2O[C@@](C)([C@@H]1OC)n1c3ccccc3c3c4c(c5c6ccccc6n2c5c31)C(=O)NC4` [STAUROSPORINE] yielded an IC50 of 6 nM.
Regarding `CCc1nn(-c2c(Cl)cc(Cl)cc2Cl)c2nc(Cc3ccncc3)[nH]c(=O)c12`, the half-inhibitory concentration (IC50) in data set [1] turned out to be 490 nM; in data set [2] it was 30 nM; in data set [4], 550 nM; in [5] it was 3000 nM.
Turning to `CCc1nn(-c2c(Cl)cc(Cl)cc2Cl)c2nc(Cc3ccc(O)cc3)[nH]c(=O)c12`, the half-inhibitory concentration (IC50) in data set [1] turned out to be 100 nM; in data set [2], 10 nM; in data set [4] it was 90 nM; in data set [5], 2000 nM.
As for `CCc1nn(-c2c(Cl)cc(Cl)cc2Cl)c2nc(Cc3cccc(N)c3C)[nH]c(=O)c12`, the half-inhibitory concentration (IC50) in data set [1] is above 270 nM; in data set [2] it was 10 nM; in [4], 190 nM; in data set [5], above 2200 nM.
As for `CN1CCC(c2c(O)cc(O)c3c(=O)cc(-c4ccccc4Cl)oc23)[C@@H](O)C1` (mixture of isomers), the concentration for half-maximal inhibition (IC50) in data set [6] is 490 nM; in data set [9], above 500000 nM; in data set [10], 6700 nM.
Regarding `CCc1nn(-c2c(Cl)cc(Cl)cc2Cl)c2nc(Cc3cccc(OC)c3)[nH]c(=O)c12`, the IC50 turned out to be 410 nM in data set [1], 30 nM in data set [2], 1700 nM in [4] and 5000 nM in data set [5].
For `CCc1nn(-c2c(Cl)cc(Cl)cc2Cl)c2nc(Cc3cccc(C)c3)[nH]c(=O)c12` the same measures were above 560 nM, 390 nM, 2100 nM and above 2200 nM.
With `CN(C)c1ccc(C(=C2C=CC(=[N+](C)C)C=C2)c2ccc(N(C)C)cc2)cc1.CN(C)c1ccc(C(=C2C=CC(=[N+](C)C)C=C2)c2ccc(N(C)C)cc2)cc1.CN=C1C=CC(=C(c2ccc(N(C)C)cc2)c2ccc(N(C)C)cc2)C=C1`, the half-maximal inhibitory concentration (IC50) in [11] was determined as 57 nM; in [12], 16 nM; in data set [1] it was 100 nM; in [13] it was 13 nM; in data set [14] it was 15 nM; in [2], 10 nM. The 50% inhibitory concentration (IC50) in data set [15] is 34 nM; in data set [4], 30 nM; in data set [16], 14 nM; in data set [5] it was 590 nM; in data set [17], 16 nM; in data set [18], 12 nM. Besides, the log partition coefficient (logP) in [3] came out at 4.2.
As to `CCc1nn(-c2c(Cl)cc(Cl)cc2Cl)c2nc(Cc3ccc(O)c(OC)c3)[nH]c(=O)c12`, the IC50 came out at 860 nM in [1], 70 nM in [2], 320 nM in data set [4] and 6600 nM in data set [5].
For `CCc1nn(-c2c(Cl)cc(Cl)cc2Cl)c2nc(Cc3ccccc3CO)[nH]c(=O)c12` the same measures were above 270 nM, 20 nM, 490 nM and 2900 nM.
With `CCc1nn(-c2c(Cl)cc(Cl)cc2Cl)c2nc(Cc3ccc(NC(C)=O)cc3)[nH]c(=O)c12`, the IC50 in data set [1] amounted to 30 nM; in data set [2] it was 9 nM; in data set [4], 20 nM; in data set [5], 1300 nM. Besides, the log partition coefficient (logP) in data set [3] amounted to 3.9.
Consider `CCc1nn(-c2c(Cl)cc(Cl)cc2Cl)c2nc(Cc3cccnc3)[nH]c(=O)c12`, for which the concentration for half-maximal inhibition (IC50) is 220 nM in data set [1], 10 nM in data set [2], 300 nM in data set [4] and 1300 nM in data set [5].
In the case of `CCc1nn(-c2c(Cl)cc(Cl)cc2Cl)c2nc(Cc3ccc(C)c(O)c3)[nH]c(=O)c12`, the half-inhibitory concentration (IC50) in data set [1] turned out to be 520 nM; in data set [2], 20 nM; in [4], 670 nM; in data set [5], 80 nM.
The like results for `CCc1nn(-c2c(Cl)cc(Cl)cc2Cl)c2nc(Cc3cccc(O)c3)[nH]c(=O)c12` were, in that order, 190 nM, 10 nM, 400 nM and 60 nM.
In the case of `CCc1nn(-c2c(Cl)cc(Cl)cc2Cl)c2nc(Cc3ccc(N(C)C)cc3)[nH]c(=O)c12`, the IC50 in [1] is above 260 nM; in [2], 20 nM; in [4] it was 340 nM; in [5], above 2100 nM.
Take `CCc1nn(-c2c(Cl)cc(Cl)cc2Cl)c2nc(Cc3ccc(O)c(C)c3)[nH]c(=O)c12`: the IC50 in data set [1] was above 270 nM; in data set [2], 20 nM; in data set [4] it was 500 nM; in data set [5], above 2200 nM.
Take `CCc1nn(-c2c(Cl)cc(Cl)cc2Cl)c2nc(Cc3ccccc3)[nH]c(=O)c12`: the IC50 in [1] was 260 nM; in data set [2], 20 nM; in data set [4], 600 nM; in data set [5], 3000 nM.

As a reminder, the IC50 is the concentration that gives 50% inhibition. As usually defined, the logP is a log measure of how a compound divides between an organic and an aqueous phase. A low value points to a more hydrophilic compound.
